Tests used:
[1] = system: human lung adenocarcinoma NCI-H441 cells; assay: In vitro inhibitory effect on the proliferation of NCI-H441 cells (3D CellTiter Glo, 5 days); assay type: cell-based; conditions: 120 h, 3D cell viability
Experimental: The human lung adenocarcinoma cell NCI-H441 used in the assay was purchased from ATCC. The complete culture medium required for cell culture was RPMI 1640 Medium (GIBCO Company), which was supplemented with 10% fetal bovine serum (GIBCO Company). Cells were cultured in a 37° C., 5% CO2 incubator. The reagents used in the assay included dimethyl sulfoxide (purchased from Sigma), a 3D Cell Viability assay kit (purchased from Promega), and the control substance TW-45 used in the assay was obtained homemade. The test substance was sealed and stored at 4° C.
Dimethyl sulfoxide was used as the solvent to fully dissolve the test substance and prepare a stock solution with a concentration of 1×10^−2 mol/L. The stock solution was stored at −20° C. A complete culture medium was used as the diluent, and the test substance was diluted to different concentrations in gradient for later use (the final test concentration was 10000, 3333, 1111, 370, 123, 41, 13.7, 4.5, 1.5, and 0.5 nM). Cells were cultured in a 37° C., 5% CO2 incubator for 5 days. Detection was made on the fifth day. 30 μL of reagent (Celltiter Glo Assay Kit-3D) was added to each well and the plate was shaken on a plate oscillator (protected from light) for 30 minutes. The plate was incubated at room temperature (protected from light) for 120 minutes. Chemiluminescence values were recorded with a Multiplate reader. […]

[2] = Mouse pharmacokinetic assay (intragastric administration, plasma HPLC-MS/MS); assay type: in vivo; conditions: ICR mice
Experimental: ICR mice were intragastrically administered with the compound at 10 mg/kg or 20 mg/kg. At different time points (0.25 h, 0.5 h, 1 h, 2 h, 4 h, 8 h, 24 h) after administration, the mice blood was collected from the orbit. The collected whole blood was anticoagulated with heparin sodium and centrifuged at 3000 g to obtain mouse plasma samples. Methanol was added to precipitate proteins. The drug concentration in the mouse plasma after administration was determined by the HPLC-MS/MS method. A drug concentration-time curve was plotted and the pharmacokinetic parameters were calculated. The pharmacokinetic behavior in mice after the compound administration was described by means of non-compartment model statistical moment parameters.

hERG channel = hERG channel (Homo sapiens (Human), UniProt Q12809); assay: hERG assay, manual whole-cell patch clamp in CHO-K1 cell line stably expressing the hERG channel; assay type: cell-based
hERG channel, sequence (Q12809 whole entry): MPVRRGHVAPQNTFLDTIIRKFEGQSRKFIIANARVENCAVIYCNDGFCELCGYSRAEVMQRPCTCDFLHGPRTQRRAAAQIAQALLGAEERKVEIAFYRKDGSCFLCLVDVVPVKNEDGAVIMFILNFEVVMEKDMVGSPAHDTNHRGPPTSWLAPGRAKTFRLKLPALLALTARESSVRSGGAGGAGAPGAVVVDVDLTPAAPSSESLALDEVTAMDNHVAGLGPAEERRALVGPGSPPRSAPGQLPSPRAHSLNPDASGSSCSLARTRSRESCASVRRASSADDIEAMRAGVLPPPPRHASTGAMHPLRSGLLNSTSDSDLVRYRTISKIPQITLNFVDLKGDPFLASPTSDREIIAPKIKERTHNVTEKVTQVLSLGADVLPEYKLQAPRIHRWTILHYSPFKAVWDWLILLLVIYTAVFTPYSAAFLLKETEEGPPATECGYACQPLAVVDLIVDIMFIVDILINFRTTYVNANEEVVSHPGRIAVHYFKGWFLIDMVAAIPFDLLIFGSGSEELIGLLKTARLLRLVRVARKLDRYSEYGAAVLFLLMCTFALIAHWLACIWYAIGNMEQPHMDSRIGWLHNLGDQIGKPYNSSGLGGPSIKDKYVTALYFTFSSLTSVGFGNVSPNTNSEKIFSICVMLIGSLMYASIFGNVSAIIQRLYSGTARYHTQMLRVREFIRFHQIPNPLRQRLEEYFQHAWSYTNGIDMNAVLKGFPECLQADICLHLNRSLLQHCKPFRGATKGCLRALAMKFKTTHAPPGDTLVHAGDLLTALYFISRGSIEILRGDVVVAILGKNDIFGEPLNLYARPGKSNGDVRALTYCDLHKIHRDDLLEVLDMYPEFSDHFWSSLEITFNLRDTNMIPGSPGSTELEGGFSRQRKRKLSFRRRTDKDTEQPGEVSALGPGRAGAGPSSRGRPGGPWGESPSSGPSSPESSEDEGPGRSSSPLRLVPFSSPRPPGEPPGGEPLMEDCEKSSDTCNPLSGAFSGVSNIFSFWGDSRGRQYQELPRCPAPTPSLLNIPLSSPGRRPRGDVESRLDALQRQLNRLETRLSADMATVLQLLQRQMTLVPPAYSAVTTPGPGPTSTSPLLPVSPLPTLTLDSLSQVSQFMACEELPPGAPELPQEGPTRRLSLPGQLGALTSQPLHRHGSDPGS
Experimental: This assay included the following aspects: • A manual patch clamp technique was used to record the hERG current in the CHO-K1 cell line stably expressing the hERG channel; • The inhibition rate at each concentration was calculated based on the hERG tail current; • Each compound was tested at 5 concentrations to calculate the IC50 value; • Three cells were tested for each concentration; • One positive control drug was set.
HERG currents were recorded using the whole-cell patch-clamp technique. The cell suspension was added to the cell tank and placed on the upright microscope stage. After the cell adherence, the cells were perfused with extracellular fluid at a flow rate of 1-2 mL/min. The glass microelectrode was drawn in two steps by a micropipette puller, and its resistance value in water was 2-5 MΩ. After establishing the whole-cell recording, the clamp potential was maintained at −80 mV. The hERG tail current was elicited by applying a depolarizing voltage to +60 mV upon the voltage stimulation and then repolarizing to −50 mV. All recordings were made after the current stabilization. Extracellular perfusion administration started from a low concentration, and each concentration lasted for 5-10 minutes until the current was stable, and then proceeded to the next concentration.
The half inhibitory concentration (ICSO) of the test compound was derived from the best fit of the Logistic equation.

[3] = Mouse tolerance assay (once daily for 7 consecutive days); assay type: in vivo; conditions: mouse, in vivo; for Number of animals (number of deaths/total number): 7 days
Experimental: • Assay animals: ICR mice, female, 5 weeks old • Solvent: 2% DMSO+98% (0.5% MC), treated by sufficient vortex and sonicated to obtain a uniform suspension • Assay method: Female ICR mice were divided into 4 groups according to weight balance, with 5 mice in each group. The administration doses were 50 mg/kg and 200 mg/kg respectively. The compound was administrated once daily for 7 consecutive days.

[4] = mouse, po, intragastric, 10 mg/kg, plasma

Compound: [2H][C@@]1(N)c2ccccc2OC12CCN(c1nc(N)c(Sc3ccnc(N)c3Cl)nc1C(C)=O)CC2 [Compound 56, (R)-1-(5-amino-6-((2-amino-3-chloropyridine-4-yl)sulfanyl)-3-(3-amino-3-deuterium-spiro[benzofuran-2,4′-piperidine]-1′-yl)pyrazine-2-yl)ethanone]
- IC50 [1]: ≤ 20 nM
- exposure and absorption in mice (in words) ([2]; intragastric administration): relatively high exposure in mice and both were well absorbed in vivo
- Cmax [2, 4]: 3570 ng/mL
- Tmax [2, 4]: 30 min
- AUC(0-t) ([2]; mouse, po, intragastric, 10 mg/kg, plasma, read-out: AUC0-24 h): 18300 ng·h/mL
- IC50 (hERG channel; CHO-K1 stable cell line, hERG tail current, 5 concentrations): > 10 µM
- inhibitory effect on the hERG channel (in words) (hERG channel; within the detection concentration range of the assay): no obvious inhibitory effect on the hERG channel
- MTD at 7 days ([3]; female, ICR): > 200 mg/kg
- Number of animals (number of deaths/total number) ([3]; female, ICR, 50 mg/kg): 0/5F
- Number of animals (number of deaths/total number) ([3]; female, ICR, 200 mg/kg): 0/5F
- tolerance in mice compared with positive control compound TW-45 [3]: significantly better
